Where a name gives a salt, the structure may show the parent alone. Read-outs that look alike come from different tables or passages of the source.
Key:
[1] = molecular target: T1, SARS-CoV-2 PLpro (nsp3 1564–1878) (Severe acute respiratory syndrome coronavirus 2, UniProt P0DTD1); experiment: biochemical; set-up: FRET-quenched peptide (Pro3) cleavage by PLpro, 10 min pre-incubation, slope over 20 min, normalised to no-compound control; details: high concentration screen, read-out: % of control remaining
[2] = molecular target: T1, SARS-CoV-2 PLpro (nsp3 1564–1878); experiment: biochemical; set-up: FRET-quenched peptide (Pro3) cleavage by PLpro, 10 min pre-incubation, slope over 20 min, normalised to no-compound control; details: low concentration screen, read-out: % of control remaining

CNc1ccc2oc(C[C@H]3O[C@@]4(CC[C@H]3C)O[C@H]([C@H](C)C(=O)c3ccc[nH]3)[C@H](C)C[C@H]4C)nc2c1C(=O)O [Calcimycin]
remaining activity at 3.75 µM ([1]; Well no.=376): 96.8%
remaining activity at 1.25 µM ([2]; Well no.=376): 98.7%

C=C1/C(=C\C=C2/CCC[C@]3(C)[C@@H]([C@H](C)/C=C/[C@@H](O)C4CC4)CC[C@@H]23)C[C@@H](O)C[C@@H]1O [Calcipotriene]
remaining activity at 3.75 µM ([1]; Well no.=1760): 96.3%
remaining activity at 1.25 µM ([2]; Well no.=1760): 96.1%

C#CCOc1ccc2c(c1)c(-c1ccc(C(C)C)cc1)nc(=O)n2C(C)C [Calcium-Sensing Receptor Antagonists I]
remaining activity at 3.75 µM ([1]; Well no.=8007): 98.6%
remaining activity at 1.25 µM ([2]; Well no.=8007): 101%

CCN[C@H]1CO[C@@H](O[C@H]2[C@H](O[C@H]3C#C/C=C\C#C[C@]4(O)CC(=O)C(NC(=O)OC)=C3/C4=C/CSSSC)O[C@H](C)[C@@H](NO[C@H]3C[C@H](O)[C@H](SC(=O)c4c(C)c(I)c(O[C@@H]5O[C@@H](C)[C@H](O)[C@@H](OC)[C@H]5O)c(OC)c4OC)[C@@H](C)O3)[C@@H]2O)C[C@@H]1OC [Calicheamicin]
remaining activity at 3.75 µM ([1]; Well no.=7060): 91.6%
remaining activity at 1.25 µM ([2]; Well no.=7060): 94.4%

Cc1ccc(O)c(N=Nc2c(O)cc(S(=O)(=O)O)c3ccccc23)c1 [Calmagite]
remaining activity at 3.75 µM ([1]; Well no.=8168): 82.2%
remaining activity at 1.25 µM ([2]; Well no.=8168): 96.3%

Clc1ccc(C(c2ccc(Cl)cc2)[n+]2ccn(CC(OCc3ccc(Cl)cc3Cl)c3ccc(Cl)cc3Cl)c2)cc1 (centres unmarked) [Calmidazolium chloride]
remaining activity at 3.75 µM ([1]; Well no.=174): 94.5%
remaining activity at 1.25 µM ([2]; Well no.=174): 101%

CN(C)C(=O)COC(=O)Cc1ccc(OC(=O)c2ccc(NC(=N)N)cc2)cc1 [Camostat mesylate]
remaining activity at 3.75 µM ([1]; Well no.=5405): 109%
remaining activity at 1.25 µM ([2]; Well no.=5405): 101%

CC[C@@]1(O)C(=O)OCc2c1cc1n(c2=O)Cc2cc3ccccc3nc2-1 [Camptothecin]
remaining activity at 3.75 µM ([1]; Well no.=1664): 84.5%
remaining activity at 3.75 µM ([1]; Well no.=3127): 91.9%
remaining activity at 1.25 µM ([2]; Well no.=1664): 98.5%
remaining activity at 1.25 µM ([2]; Well no.=3127): 96.8%

Cc1ccc([C@@H]2O[C@H](CO)[C@@H](O)[C@H](O)[C@H]2O)cc1Cc1ccc(-c2ccc(F)cc2)s1 [Canagliflozin]
remaining activity at 3.75 µM ([1]; Well no.=5075): 95.2%
remaining activity at 1.25 µM ([2]; Well no.=5075): 94.6%

CCOc1nc2cccc(C(=O)OC(C)OC(=O)OC3CCCCC3)c2n1Cc1ccc(-c2ccccc2-c2nn[nH]n2)cc1 (centres unmarked) [Candesartan (Cilexetil)]
remaining activity at 3.75 µM ([1]; Well no.=7673): 92.5%
remaining activity at 1.25 µM ([2]; Well no.=7673): 95.7%

CCOc1nc2cccc(C(=O)O)c2n1Cc1ccc(-c2ccccc2-c2nnn[nH]2)cc1 [Candesartan]
remaining activity at 3.75 µM ([1]; Well no.=1846): 96.2%
remaining activity at 3.75 µM ([1]; Well no.=7380): 105%
remaining activity at 1.25 µM ([2]; Well no.=1846): 96.4%
remaining activity at 1.25 µM ([2]; Well no.=7380): 103%

C=CC(=O)Nc1cc2c(Nc3ccc(F)c(Cl)c3)ncnc2cc1OCCCN1CCOCC1 [Canertinib]
remaining activity at 3.75 µM ([1]; Well no.=2693): 107%
remaining activity at 1.25 µM ([2]; Well no.=2693): 105%

C[C@]12CCC(=O)C=C1C=C[C@@H]1[C@@H]2CC[C@@]2(C)[C@H]1CC[C@@]21CCC(=O)O1 [Canrenone]
remaining activity at 3.75 µM ([1]; Well no.=2181): 98%
remaining activity at 1.25 µM ([2]; Well no.=2181): 93.5%

C[C@]1(C(=O)O)[C@@H]2CC[C@@H](O2)[C@@]1(C)C(=O)O [Cantharidic Acid]
remaining activity at 3.75 µM ([1]; Well no.=378): 88.7%
remaining activity at 1.25 µM ([2]; Well no.=378): 87.8%

C[C@@]12C(=O)OC(=O)[C@]1(C)[C@H]1CC[C@@H]2O1 [Cantharidin]
remaining activity at 3.75 µM ([1]; Well no.=42): 97.9%
remaining activity at 3.75 µM ([1]; Well no.=3129): 108%
remaining activity at 1.25 µM ([2]; Well no.=42): 94.6%
remaining activity at 1.25 µM ([2]; Well no.=3129): 107%

CC1=C(/C=C/C(C)=C/C=C/C(C)=C/C=C/C=C(C)/C=C/C=C(C)/C=C/C2=C(C)C(=O)CCC2(C)C)C(C)(C)CCC1=O [Canthaxanthin]
remaining activity at 3.75 µM ([1]; Well no.=1791): 104%
remaining activity at 3.75 µM ([1]; Well no.=4147): 100%
remaining activity at 1.25 µM ([2]; Well no.=1791): 105%
remaining activity at 1.25 µM ([2]; Well no.=4147): 93.8%

N#Cc1c(N)nc(SCc2csc(-c3ccc(Cl)cc3)n2)c(C#N)c1-c1ccc(OCCO)cc1 [Capadenoson]
remaining activity at 3.75 µM ([1]; Well no.=8649): 102%
remaining activity at 1.25 µM ([2]; Well no.=8649): 106%

CCCCCOC(=O)Nc1nc(=O)n([C@@H]2O[C@H](C)[C@@H](O)[C@H]2O)cc1F [Capecitabine]
remaining activity at 3.75 µM ([1]; Well no.=2290): 96.5%
remaining activity at 1.25 µM ([2]; Well no.=2290): 96.5%

CN1N=C2CCN(C(=O)[C@@H](COCc3ccccc3)NC(=O)C(C)(C)N)C[C@@]2(Cc2ccccc2)C1=O [Capromorelin (Tartrate)]
remaining activity at 3.75 µM ([1]; Well no.=7235): 102%
remaining activity at 1.25 µM ([2]; Well no.=7235): 96.9%

Oc1cc2c(cc1O)CN(C(=S)NCCc1ccc(Cl)cc1)CCC2 [Capsazepine]
remaining activity at 3.75 µM ([1]; Well no.=631): 99.5%
remaining activity at 1.25 µM ([2]; Well no.=631): 98.8%

C[C@H](CS)C(=O)N1CCC[C@H]1C(=O)O [Captopril]
remaining activity at 3.75 µM ([1]; Well no.=318): 97%
remaining activity at 3.75 µM ([1]; Well no.=1915): 100%
remaining activity at 3.75 µM ([1]; Well no.=4135): 98%
remaining activity at 3.75 µM ([1]; Well no.=7412): 106%
remaining activity at 1.25 µM ([2]; Well no.=318): 93.1%
remaining activity at 1.25 µM ([2]; Well no.=1915): 97.2%
remaining activity at 1.25 µM ([2]; Well no.=4135): 101%
remaining activity at 1.25 µM ([2]; Well no.=7412): 105%

C[N+](C)(C)CCOC(N)=O [Carbachol]
remaining activity at 3.75 µM ([1]; Well no.=32): 99%
remaining activity at 1.25 µM ([2]; Well no.=32): 95.6%

CCCCC[C@H](O)/C=C/[C@@H]1[C@H]2C/C(=C/CCCC(=O)O)C[C@H]2C[C@H]1O [Carbacyclin]
remaining activity at 3.75 µM ([1]; Well no.=4529): 95.8%
remaining activity at 1.25 µM ([2]; Well no.=4529): 91.4%

COC(=O)N/N=C/c1c[n+]([O-])c2ccccc2[n+]1[O-] [Carbadox]
remaining activity at 3.75 µM ([1]; Well no.=2211): 93.2%
remaining activity at 1.25 µM ([2]; Well no.=2211): 98.3%

NC(=O)N1c2ccccc2C=Cc2ccccc21 [Carbamazepine]
remaining activity at 3.75 µM ([1]; Well no.=270): 94.9%
remaining activity at 3.75 µM ([1]; Well no.=2215): 95.8%
remaining activity at 1.25 µM ([2]; Well no.=270): 96.8%
remaining activity at 1.25 µM ([2]; Well no.=2215): 97.8%

C[N+](C)(C)CCOC(N)=O [Carbamoylcholine (chloride)]
remaining activity at 3.75 µM ([1]; Well no.=6757): 97.3%
remaining activity at 1.25 µM ([2]; Well no.=6757): 99.9%

CC(C[N+](C)(C)C)OC(N)=O (stereo not drawn) [Carbamyl-beta-methylcholine]
remaining activity at 3.75 µM ([1]; Well no.=1736): 94.9%
remaining activity at 1.25 µM ([2]; Well no.=1736): 95.2%

C[N+](C)(C)CCOC(N)=O [Carbamylcholine]
remaining activity at 3.75 µM ([1]; Well no.=1734): 102%
remaining activity at 1.25 µM ([2]; Well no.=1734): 99.8%

CN1C2=CC(=O)/C(=N\NC(N)=O)C=C2CC1S(=O)(=O)O (centres unmarked) [Carbazochrome sodium sulfonate]
remaining activity at 3.75 µM ([1]; Well no.=5261): 95%
remaining activity at 1.25 µM ([2]; Well no.=5261): 96.5%

Source: PMC8286840, “Identifying SARS-CoV-2 antiviral compounds by screening for small molecule inhibitors of Nsp3 papain-like protease” (Biochemical Journal, 2021)
